Experimental data taken from PMC5702903 (CPT: Pharmacometrics & Systems Pharmacology, 2017).

How the values were obtained:
[1] = Empirical plasma PK model; type: in vivo, rat; details: for clearance: rat, plasma, iv
[2] = source not given; cited from earlier work
[3] = Asymmetry factors; design: species or system rat; details: for AFin2, asymmetry factor: into CSFLV at BCSFB1; for AFin2, asymmetry factor / AFout2, asymmetry factor: calculated from Kp,uu,CSFLV; for AFin3, asymmetry factor: into CSFTFV at BCSFB2; for AFin3, asymmetry factor / AFout3, asymmetry factor: calculated from Kp,uu,CSFCM; for AFin1, asymmetry factor: into brainECF at BBB; for AFin1, asymmetry factor / AFout1, asymmetry factor: calculated from Kp,uu,brainECF; for AFout2, asymmetry factor: out from CSFLV at BCSFB1; for AFout3, asymmetry factor: out from CSFTFV at BCSFB2; for AFout1, asymmetry factor: out from brainECF at BBB
[4] = Drug transport clearance at the brain cell membrane in the PBPK model; design: species or system rat; details: comparison of QBCM_in/QBCM_out with QBBB_in/QBBB_out
[5] = rat; cited from earlier work
[6] = source not given; cited from earlier work; remark: listed apart in the source
[7] = ref fu,p references of Table SI; cited from earlier work
[8] = Free fraction in brain; type: in vitro ADME; details: rat
[9] = rat plasma PK model, estimate (RSE, %)
[10] = rat plasma PK model, parameter estimate (RSE, %)

Compound | ɷ_CLPL, interindividual variability [1, 9] | ɷ_QPL_PER1, interindividual variability [1, 9] | ɷ_QPL_PER2, interindividual variability [1, 9] | ɷ_VPER1, interindividual variability [1, 9] | ɷ_VPL, interindividual variability [1, 9] | Charge class [2] | VPER1, distribution volume of the peripheral compartment 1 [1, 10] | VPL, distribution volume of the central compartment [1, 10] | clearance [1] | AFin2, asymmetry factor [3] | AFin3, asymmetry factor [3] | AFin1, asymmetry factor [3] | AFout2, asymmetry factor [3] | AFout3, asymmetry factor [3] | AFout1, asymmetry factor [3] | what limits the transport clearance from brainMV, via brainECF, to brainICF [4] | VPER2, distribution volume of the peripheral compartment 2 [1, 10] | also measured
CN1CC[C@]23c4c5ccc(O)c4O[C@H]2[C@@H](O)C=C[C@H]3[C@H]1C5 [Morphine] | 17.8 (39.5) % | 28.8 (29.4) % | 86.7 (19.3) % | 46.0 (15.3) % | 80.6 (17.2) % | Base |  |  |  |  |  |  |  |  |  |  |  | ɷ_study1, interoccasional variability [1, 9]: 42.7 (16.2) %; ɷ_study2, interoccasional variability [1, 9]: 29.7 (30.5) %
C=C[C@H]1C[N@@]2CC[C@H]1C[C@@H]2[C@@H](O)c1ccnc2ccc(OC)cc12 [Quinidine] | 23.9 (15.3) % | 24.3 (28.2) % |  | 12.8 (26.6) % |  |  |  |  |  |  |  |  |  |  |  |  |  | 
O=C1NC(=O)C(c2ccccc2)(c2ccccc2)N1 [Phenytoin] | 73.8 (12.5) % |  |  |  | 75.0 (27.2) % | Neutral | 2,050 (7.50) mL | 943 (21.5) mL | 36 mL/min | 1.0 | 1.0 | 1.0 | 7.6 | 7.7 | 4.2 | limited by QBBB_in and QBBB_out |  | Kp,uu,CSFCM, unbound CSFCM-to-plasma concentration ratio [5]: 0.26; Kp,uu,CSFLV, unbound CSFLV-to-plasma concentration ratio [5]: 0.26; Kp,uu,brainECF, unbound brain extracellular fluid-to-plasma concentration ratio [5]: 0.26; fu,b, free fraction in brain [6]: 0.080
CC(=O)Nc1ccc(O)cc1 [Acetaminophen] |  |  |  | 51.8 (86.0) % |  | Neutral | 363 (33.1) mL | 49.5 (59.0) mL |  |  |  |  |  |  |  |  |  | Fraction, percentage of the drug which is reabsorbed by enterohepatic circulation [1, 10]: 0.693 (19.6); fu,p, free fraction in plasma [7]: 0.81
CC(C)NCC(O)COc1ccc(CC(N)=O)cc1 (stereo not drawn) [Atenolol] |  |  |  |  |  | Base |  |  |  |  |  |  |  |  |  |  |  | 
Cc1nc2n(c(=O)c1CCN1CCC(c3noc4cc(F)ccc34)CC1)CCCC2O (stereo not drawn) [Paliperidone] | 42.0 (62.5) % |  |  |  | 47.5 (81.4) % | Base | 3,580 (35.8) mL | 26,400 (12.6) mL | 196 mL/min | 1.0 | 1.0 | 1.0 | 3.7 | 4.7 | 3.0 | limited by QBBB_in and QBBB_out |  | fraction unbound [8]: 0.065; Kp,uu,CSFCM, unbound CSFCM-to-plasma concentration ratio [5]: 0.50; Kp,uu,CSFLV, unbound CSFLV-to-plasma concentration ratio [5]: 0.50; Kp,uu,brainECF, unbound brain extracellular fluid-to-plasma concentration ratio [5]: 0.50; pKa (acid) [2]: 13.7
Cc1nc2n(c(=O)c1CCN1CCC(c3noc4cc(F)ccc34)CC1)CCCC2 [Risperidone] | 72.5 (38.7) % |  |  |  | 53.7 (78.8) % | Base |  | 43,100 (28.1) mL | 886 mL/min | 1.0 | 1.0 | 1.0 | 1.3 | 1.5 | 1.3 | limited by QBBB_in and QBBB_out |  | fu,b, free fraction in brain [6]: 0.065
CCN1CCC[C@H]1CNC(=O)c1c(OC)ccc(Br)c1OC [Remoxipride] | 31.0 (12.0) % | 25.1 (12.1) % | 76.7 (13.5) % |  | 64.1 (32.9) % | Base | 253 (10.9) mL | 83.7 (18.3) mL | 42.2 mL/min |  |  |  |  |  |  |  | 757 (4.00) mL | 
CN(Cc1cnc2nc(N)nc(N)c2n1)c1ccc(C(=O)N[C@@H](CCC(=O)O)C(=O)O)cc1 [Methotrexate] | 37.4 (46.8) % |  | 42.5 (42.0) % |  | 40.4 (75.5) % | Acid | 111 (14.6) mL | 28.0 (55.0) mL | 8.04 mL/min |  |  |  |  |  |  | limited by QBCM_in and QBCM_out | 83.5 (34.9) mL | 
CCN1CCC[C@H]1CNC(=O)c1c(O)c(Cl)cc(Cl)c1OC [Raclopride] | 14.4 (29.8) % |  |  |  |  | Zwitterion | 684 (19.2) mL | 48.9 (16.3) mL | 46.4 mL/min | 1.0 | 1.0 | 1.0 | 1.1 | 1.9 | 1.4 | limited by QBBB_in and QBBB_out | 493 (18.3) mL | pKa (acid) [2]: 5.9; pKa (base) [2]: 9.0
